How the values were obtained:
Format in all cases: physicochemical
[1] = Radiation resistance of the extractants (gamma irradiation)
Description: The radiation resistance of the extractants according to the invention used for extraction radionuclides of strontium or cesium was studied. For this purpose, reaction mixtures consisting of biphase water-organic systems containing extractants based on crown ethers DCH18C6 or DB21C7 in Fluoroheptanol n3 and aqueous nitrate waste solutions, and, for comparison, reaction mixtures containing extractants based on crown ethers Crown XVI or Crown XVII with a cation exchanger—dinanylnaphthalene of sulfonic acids in a matrix solution comprising tributyl phosphate and kerosene were irradiated with gamma-rays […] in a temperature-controlled cell of stainless steel with continuous agitation by bubbling. The maximum integrated radiation dose was equal to 285.3 kGr. The extractant samples were tested and the extraction characteristics were measured before and after the irradiation to determine a decrease of the distribution ratio DMe due to the radiological destruction of extractant components.

[2] = Solubility of crown ethers in water and nitric acid from extractants with different organic solvents
Description: The study of solubility of extractants according to the invention and the extractants containing similar crown ethers in other solvents in aqueous and nitrate solutions was carried out.
Taken for the tests were crown ethers containing DCH18C6 or DB21C7 in a concentration of about 0.1 mole/l in different organic solvents. The extractants were mixed with aqueous or nitrate solutions with a content of nitric acid 3 mole/l in a closed thermostatically controlled chamber for 3 hours. Then the obtained water-organic systems were separated. The aqueous part after settling down and filtering was analyzed for a content of crown ethers using photometric measurements.

[3] = Extraction of cations of different metals (Table 8); conditions: for Distribution ratios, Pb: initial 0.05 g/l; for Distribution ratios, Mn: initial 0.4 g/l; for Distribution ratios, Ru: initial 0.75 g/l; for Distribution ratios, Ba / Distribution ratios, Cr / Distribution ratios, Cs / Distribution ratios, Sr / Distribution ratios, Zr: initial 1.0 g/l; for Distribution ratios, Ba / Distribution ratios, Al: crown ether 0.05 mol/l in Fluoroheptanol n3 80% / synthanol 20%, nitric acid about 190 g/l; for Distribution ratios, Ca: initial 2.0 g/l; for Distribution ratios, Ni: initial 4.0 g/l; for Distribution ratios, Al: initial 6.0 g/l; for Distribution ratios, Fe / Distribution ratios, Na: initial 10.0 g/l; for Distribution ratios, Rare-earth: initial 25.0 g/l
Description: A process of extraction of cations of different metals from aqueous nitrate solutions was studied by processing them using the extractants according to the invention containing DCH18C6 or DB21C7 in an organic solvent comprising: Fluoroheptanol n3—80% by volume and synthanol—20% by volume at a concentration of crown ethers of 0.05 mol/l and a content of nitric acid about of 190 g/l. For comparison, the data were used given in a patent specification (U.S. Pat. No. 4,749,518, A) describing similar tests of extractants containing Crown XVI or Crown XVII with a cation exchanger—dinanylnaphthalene sulfonic acid in a matrix solution containing tributyl phosphate and kerosene.
The solutions were contacted with the extractants according to the invention in temperature-controlled ([…]) separating funnels for 5 minutes at a ratio of organic and aqueous phases of 1:1. After settling within 60 minutes, the phases were separated, and the aqueous phase was analyzed to determine the concentration of the elements.

[4] = Influence of nitric acid concentration on extraction of sodium; conditions: crown ether about 0.1 mol/l in Fluoroheptanol n3
Description: Selected for study were extractants containing crown ethers: DB18C6, DTBDB18C6, DCH18C6 or DB21C7 in a concentration of about 0.1 mol/l in Fluoroheptanol n3. Used as experimental solutions were aqueous solutions of sodium nitrate whose concentration was determined using radiometric techniques on previously added aliquot of a sodium-22 isotope.

[5] = Interaction of extractants with sodium (organic/aqueous phase concentration)
Description: The characteristics of the extractants according to the invention in the process of extraction of sodium from acidic aqueous solutions of high-level waste were determined. For this purpose, the concentration of sodium in the organic and aqueous phases containing extractants based on DTBDB18C6 or DCH18C6 or DB21C7 in a concentration about of 0.05 mol/l in fluoroheptanol n3 were analyzed.

[6] = Behaviour of crown ether in decane extraction system (Table 1 remarks); conditions: crown ether 0.1 mole/l in Decane
Description: Study was carried out for determining the distribution ratios of radionuclides, for example, strontium or cesium to be extracted by the extractants according to the invention containing various crown ethers as a complexing agent: bis(tert-butylbenzo)-18-crown-6 (subsequently referred to as DTBDB18C6), di-isooctylbenzo-18-crown-6 (subsequently referred to as DIODB18C6), bis(tert-butylcyclohexane-18-crown-6 (subsequently referred to as DTBDCH18C6), di-isooxyldicyclohexane-18-crown-6 (subsequently referred to as DIODCH18C6), bicyclohexane-18-crown-6 (subsequently referred to as DCH18C6) or dibenzo-21-crown-7 (subsequently referred to as DB21C7), in an organic solvent according to the invention: polyfluorinated telomeric alcohol 1,1,7-trihydrododecafluoroheptanol-1 (subsequently referred to as fluoroheptanol n3).
For comparison, the distribution ratios of strontium and cesium were determined using extractants containing similar crown ethers in another organic solvent (decane).
Taken for the tests were experimental aqueous nitrate solutions containing strontium and cesium in a concentration of 1 g/l with a content of nitric acid of about 3.0 mol/l.

[7] = Concentration of crown ether in extracted products, dynamic cesium extraction (7.2)
Description: The scheme of the process and the conditions of extraction of cesium by the method according to the invention are similar to those described above in 7.1, but the organic phase for extraction of cesium includes solutions DB21C7 in a concentration of about 0.05 mol/l in an organic solvent containing synthanol in an amount of 5% by volume and Fluoroheptanol n3 in an amount of about 95% by volume.
During the operation of the experimental facility radiometric monitoring devices were used to control the concentration of strontium in the refined products, re-extracts and reclaims, as well as the concentration of the crown ethers in the extracted products. The technological characteristics of the process and solubility of the crown ether (averaged values of several experiments) are given in Table 16.

[8] = solvent 2,2-dihydrotrifluoroethyl pentafluoroethyl ether, H2O
[9] = solvent 2,2-dihydrotrifluoroethyl pentafluoroethyl ether, HNO3 3 mole/l
[10] = solvent Fluoroheptanol n3, HNO3 3 mole/l
[11] = solvent Tetrachloroethane, HNO3 3 mole/l, crown ether about 0.1 mole/l, 3 hours
[12] = solvent Trichlorethylene, HNO3 3 mole/l
[13] = solvent Trichlorobenzene, HNO3 3 mole/l
[14] = sodium in the aqueous phase 0.01 mol/l, crown ether about 0.05 mol/l in fluoroheptanol n3
[15] = sodium in the aqueous phase 0.1 mol/l, crown ether about 0.05 mol/l
[16] = sodium in the aqueous phase 0.2 mol/l, crown ether about 0.05 mol/l
[17] = sodium in the aqueous phase 0.4 mol/l, crown ether about 0.05 mol/l

C1CCC2OCCOCCOC3CCCCC3OCCOCCOC2C1 (stereo not drawn) [DCH18C6, bicyclohexane-18-crown-6]
Distribution ratio before irradiation ([1]; Sr): 3.6
Distribution ratio DMe after irradiation ([1]; Sr, dose 100.0 kGr (10^7 rad)): 3.4
Distribution ratio after irradiation, % of original ([1]; Sr, dose 100.0 kGr (10^7 rad)): 94.4%
Distribution ratio DMe after irradiation ([1]; Sr, dose 285.3 kGr): 3.0
Distribution ratio after irradiation, % of original ([1]; Sr, dose 285.3 kGr): 83.3%
Concentration of crown ether in an aqueous phase [2, 8]: 0.301 mol/l × 10^−3
Concentration of crown ether in an aqueous phase [2, 9]: 0.344 mol/l × 10^−3
Concentration of crown ether in an aqueous phase ([2]; solvent Fluoroheptanol n3, H2O): <0.027 mol/l × 10^−3
Concentration of crown ether in an aqueous phase [2, 10]: 0.086 mol/l × 10^−3
Concentration of crown ether in an aqueous phase ([2]; solvent Tetrachloroethane, H2O): 0.258 mol/l × 10^−3
Concentration of crown ether in an aqueous phase [2, 11]: 0.139 mol/l × 10^−3
Concentration of crown ether in an aqueous phase ([2]; solvent Tetrachloropropane, H2O): 0.968 mol/l × 10^−3
Concentration of crown ether in an aqueous phase ([2]; solvent Tetrachloropropane, HNO3 3 mole/l): 1.72 mol/l × 10^−3
Concentration of crown ether in an aqueous phase ([2]; solvent Trichlorethylene, H2O): 0.65 mol/l × 10^−3
Concentration of crown ether in an aqueous phase [2, 12]: 0.94 mol/l × 10^−3
Concentration of crown ether in an aqueous phase ([2]; solvent Trichlorobenzene, H2O): 1.142 mol/l × 10^−3
Concentration of crown ether in an aqueous phase [2, 13]: 2.016 mol/l × 10^−3
Distribution ratios, Pb ([3]; same extractant conditions): 4.2
Distribution ratios, Mn ([3]; same extractant conditions): 0.06
Distribution ratios, Ru ([3]; same extractant conditions): 0.16
Distribution ratios, Ba [3]: 2.03
Distribution ratios, Cr ([3]; same extractant conditions): 0.02
Distribution ratios, Cs ([3]; same extractant conditions): 0.02
Distribution ratios, Sr ([3]; same extractant conditions): 3.6
Distribution ratios, Zr ([3]; same extractant conditions): 0.018
Distribution ratios, Ca ([3]; same extractant conditions): 0.12
Distribution ratios, Ni ([3]; same extractant conditions): 0.023
Distribution ratios, Al [3]: 0.03
Distribution ratios, Fe ([3]; same extractant conditions): 0.017
Distribution ratios, Na ([3]; same extractant conditions): 0.01
Distribution ratios, Rare-earth ([3]; same extractant conditions): 0.04
Distribution ratios of sodium ([4]; nitric acid 0 mol/l): 0.1
Distribution ratios of sodium ([4]; nitric acid 0.1 mol/l): 0.12
Distribution ratios of sodium ([4]; nitric acid 0.5 mol/l): 0.12
Distribution ratios of sodium ([4]; nitric acid 1.0 mol/l): 0.05
Distribution ratios of sodium ([4]; nitric acid 3.0 mol/l): 0.02
Distribution ratios of sodium ([4]; nitric acid 5.0 mol/l): 0.01
Sodium concentration in the organic phase [5, 14]: 0 mol/L
Sodium concentration in the organic phase [5, 15]: 0.003 mol/L
Sodium concentration in the organic phase [5, 16]: 0.005 mol/L
Sodium concentration in the organic phase [5, 17]: 0.009 mol/L

c1ccc2c(c1)OCCOCCOCCOc1ccccc1OCCOCCO2 [DB21C7, dibenzo-21-crown-7]
Remarks [6]: Is insoluble
Distribution ratio before irradiation ([1]; Cs): 2.83
Distribution ratio DMe after irradiation ([1]; Cs, dose 100.0 kGr (10^7 rad)): 2.83
Distribution ratio after irradiation, % of original ([1]; Cs, dose 100.0 kGr (10^7 rad)): 100.0%
Distribution ratio DMe after irradiation ([1]; Cs, dose 285.3 kGr): 2.65
Distribution ratio after irradiation, % of original ([1]; Cs, dose 285.3 kGr): 93.8%
Concentration of crown ether in an aqueous phase [2, 8]: 0.071 mol/l × 10^−3
Concentration of crown ether in an aqueous phase [2, 9]: 0.112 mol/l × 10^−3
Concentration of crown ether in an aqueous phase ([2]; solvent Fluoroheptanol n3, H2O): <0.025 mol/l × 10^−3
Concentration of crown ether in an aqueous phase [2, 10]: 0.068 mol/l × 10^−3
Concentration of crown ether in an aqueous phase ([2]; solvent Tetrachloroethane, H2O): 0.173 mol/l × 10^−3
Concentration of crown ether in an aqueous phase [2, 11]: 0.159 mol/l × 10^−3
Remarks ([2]; solvent Tetrachloropropane): Insoluble
Concentration of crown ether in an aqueous phase ([2]; solvent Trichlorethylene, H2O): 0.188 mol/l × 10^−3
Concentration of crown ether in an aqueous phase [2, 12]: 0.218 mol/l × 10^−3
Concentration of crown ether in an aqueous phase ([2]; solvent Trichlorobenzene, H2O): 0.168 mol/l × 10^−3
Concentration of crown ether in an aqueous phase [2, 13]: 0.173 mol/l × 10^−3
Concentration of the crown ether in the extracted products ([7]; Re-extract): 53 Mg/l
Concentration of the crown ether in the extracted products ([7]; Reclaim): 18 Mg/l
Concentration of the crown ether in the extracted products ([7]; Refined product): 27 Mg/l
Distribution ratios, Pb ([3]; same extractant conditions): 0.02
Distribution ratios, Rb ([3]; initial 0.12 g/l, same extractant conditions): 0.02
Distribution ratios, Pd ([3]; initial 0.3 g/l, same extractant conditions): 0.03
Distribution ratios, Mn ([3]; same extractant conditions): 0.04
Distribution ratios, Ru ([3]; same extractant conditions): 0.004
Distribution ratios, Ba [3]: 1.02
Distribution ratios, Cr ([3]; same extractant conditions): 0.02
Distribution ratios, Cs ([3]; same extractant conditions): 1.8
Distribution ratios, Sr ([3]; same extractant conditions): 0.02
Distribution ratios, Zr ([3]; same extractant conditions): 0.038
Distribution ratios, Ca ([3]; same extractant conditions): 0.02
Distribution ratios, Ni ([3]; same extractant conditions): 0.03
Distribution ratios, Al [3]: 0.02
Distribution ratios, Fe ([3]; same extractant conditions): 0.014
Distribution ratios, Na ([3]; same extractant conditions): 0.047
Distribution ratios, Rare-earth ([3]; same extractant conditions): 0.04
Distribution ratios of sodium ([4]; nitric acid 0 mol/l): 0
Distribution ratios of sodium ([4]; nitric acid 0.1 mol/l): 0
Distribution ratios of sodium ([4]; nitric acid 0.5 mol/l): 0.005
Distribution ratios of sodium ([4]; nitric acid 1.0 mol/l): 0.01
Distribution ratios of sodium ([4]; nitric acid 3.0 mol/l): 0.1
Distribution ratios of sodium ([4]; nitric acid 5.0 mol/l): 0.12
Sodium concentration in the organic phase [5, 14]: 0 mol/L
Sodium concentration in the organic phase [5, 15]: 0.01 mol/L
Sodium concentration in the organic phase [5, 16]: 0.018 mol/L
Sodium concentration in the organic phase [5, 17]: 0.035 mol/L
